Laboratory results from US12391680B2, “Compounds and compositions for the treatment of cystic fibrosis” (FONDAZIONE ISTITUTO ITALIANO DI TECNOLOGIA, priority 2019, dated 2025).
pEC50: −log10 of the molar value.

Biological target: mutant CFTR (Homo sapiens, UniProt P13569)
Test: Fluorescence assay for CFTR activity (halide-sensitive YFP, HS-YFP)
Type: cell-based
Settings: CFBE41o- and FRT cells with stable expression of mutant CFTR
Protocol: Mutant CFTR activity was determined with the functional assay based on the halide-sensitive yellow fluorescent protein, HS—YFP (Galietta et al., FEBS Lett 499:220-224, 2001). CFBE41o- and FRT cells with stable expression of mutant CFTR and HS—YFP were plated on clear-bottom 96-well black microplates (Code 3603, Corning Life Sciences) at a density of 50,000 cells/well and kept at 37° C. in 5% CO2 for 24 hours.
For the corrector assay, cells were treated for further 24 hours with test compounds, vehicle (DMSO), or the positive control VX-809. After treatment, the culture medium was removed and cells in each well were stimulated for 30 min at 37° C. with 60 μL PBS (containing 137 mM NaCl, 2.7 mM KCl, 8.1 mM Na2HPO4, 1.5 mM KH2PO4, 1 mM CaCl2, and 0.5 mM MgCl2) plus forskolin (20 μM) and genistein (50 μM).
For determination of potentiator activity on F508del-CFTR, cells were incubated for 24 hours at 27° C. to allow trafficking of the mutant protein to plasma membrane. Cells were then stimulated with for 30 min with PBS containing forskolin (20 μM) plus the compound to be tested at the desired concentration. For determination of potentiator activity on G551D-CFTR or G1349D-CFTR, cells were directly stimulated with forskolin plus test compound without previous incubation at low temperature. At the time of assay, microplates carrying CFBE41o- or FRT cells were transferred to microplate readers (BMG Labtech) equipped with high-quality excitation (HQ500/20×: 500±10 nm) and emission (HQ535/30M: 535±15 nm) filters for YFP (Chroma Technology). The assay consisted of a continuous 14 s fluorescence reading with 2 s before and 12 s after injection of an iodide-containing solution (165 μL of a modified PBS containing I^− instead of Cl^−; final I^− concentration in the well: 100 mM). Data were normalized to the initial background-subtracted fluorescence. Enhanced CFTR activity, induced by correctors and/or potentiators, results in accelerated I^− influx that in turn causes faster HS—YFP quenching (Pedemonte et al., Mol Pharmacol 68:1736-1746, 2005; Pedemonte et al., J Clin Invest 115:2564-2571, […]). To determine fluorescence quenching rate associated with I^− influx, the final 10 s of data for each well were fitted with an exponential function to extrapolate initial slope (dF/dt).
EC50 obtained are illustrated in Table 1 wherein+: EC50>2 μM; ++: 1.0 μM <EC50<2 μM; +++: EC50<1 μM.

Chain of mutant CFTR (P13569 with tags, fused parts or gaps DEL508-508): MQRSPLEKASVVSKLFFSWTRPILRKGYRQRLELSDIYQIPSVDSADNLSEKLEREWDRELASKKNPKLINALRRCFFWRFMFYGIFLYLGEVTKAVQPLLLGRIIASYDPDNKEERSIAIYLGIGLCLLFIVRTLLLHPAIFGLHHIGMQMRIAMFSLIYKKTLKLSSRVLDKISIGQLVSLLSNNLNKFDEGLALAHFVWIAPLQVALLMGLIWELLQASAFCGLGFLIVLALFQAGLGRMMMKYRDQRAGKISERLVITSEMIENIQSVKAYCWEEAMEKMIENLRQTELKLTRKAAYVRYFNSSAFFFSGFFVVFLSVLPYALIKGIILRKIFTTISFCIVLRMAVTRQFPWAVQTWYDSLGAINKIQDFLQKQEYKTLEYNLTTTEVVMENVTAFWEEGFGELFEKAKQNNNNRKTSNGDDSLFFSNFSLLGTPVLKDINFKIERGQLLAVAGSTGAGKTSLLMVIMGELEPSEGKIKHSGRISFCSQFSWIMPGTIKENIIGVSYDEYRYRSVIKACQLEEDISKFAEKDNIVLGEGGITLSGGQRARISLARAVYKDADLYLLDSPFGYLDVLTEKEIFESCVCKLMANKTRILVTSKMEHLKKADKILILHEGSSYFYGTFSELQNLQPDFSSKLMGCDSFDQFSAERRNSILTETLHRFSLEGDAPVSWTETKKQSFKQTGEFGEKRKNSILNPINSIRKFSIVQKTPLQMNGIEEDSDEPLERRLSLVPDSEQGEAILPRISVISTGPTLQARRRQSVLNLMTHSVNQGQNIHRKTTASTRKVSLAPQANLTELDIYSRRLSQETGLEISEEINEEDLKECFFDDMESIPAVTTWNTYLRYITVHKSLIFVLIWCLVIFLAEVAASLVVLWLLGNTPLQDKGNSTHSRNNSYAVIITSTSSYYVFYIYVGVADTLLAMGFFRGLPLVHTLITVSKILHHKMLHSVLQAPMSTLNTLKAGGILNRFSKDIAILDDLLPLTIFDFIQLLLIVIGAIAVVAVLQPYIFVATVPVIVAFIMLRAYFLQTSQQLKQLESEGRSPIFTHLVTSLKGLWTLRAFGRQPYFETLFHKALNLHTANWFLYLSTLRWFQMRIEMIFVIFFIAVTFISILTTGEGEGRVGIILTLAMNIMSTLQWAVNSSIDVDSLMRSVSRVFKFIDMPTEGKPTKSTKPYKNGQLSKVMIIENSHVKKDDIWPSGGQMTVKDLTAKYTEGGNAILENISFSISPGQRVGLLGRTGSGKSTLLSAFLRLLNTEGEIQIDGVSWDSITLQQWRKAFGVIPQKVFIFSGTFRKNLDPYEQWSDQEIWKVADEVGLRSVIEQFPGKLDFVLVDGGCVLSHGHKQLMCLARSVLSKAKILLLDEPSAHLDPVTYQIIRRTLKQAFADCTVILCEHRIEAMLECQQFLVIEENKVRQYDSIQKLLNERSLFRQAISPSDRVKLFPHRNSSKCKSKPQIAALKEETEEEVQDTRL

Row | SMILES | pEC50
1 | Cc1nc(S(=O)(=O)N2CCOC(c3c(C(N)=O)sc4ccccc34)C2)cn1C (racemic) [compound 002, rac-3-[4-(1,2-dimethylimidazol-4-yl)sulfonylmorpholin-2-yl]benzothiophene-2-carboxamide] | < 5.70
2 | NC(=O)c1sc2ccccc2c1C1CN(S(=O)(=O)c2ccccc2)CCO1 (racemic) [compound 003, rac-3-[4-(benzenesulfonyl)morpholin-2-yl]benzothiophene-2-carboxamide] | < 5.70
3 | NC(=O)c1sc2ccccc2c1C1CN(S(=O)(=O)c2c[nH]cn2)CCO1 (racemic) [compound 004, rac-3-[4-(1H-imidazol-4-ylsulfonyl)morpholin-2-yl]benzothiophene-2-carboxamide] | < 5.70
4 | NC(=O)c1sc2ccccc2c1C1CN(S(=O)(=O)c2ccsc2)CCO1 (racemic) [compound 005, rac-3-[4-(3-thienylsulfonyl)morpholin-2-yl]benzothiophene-2-carboxamide] | < 5.70
5 | NC(=O)c1sc2ccccc2c1C1CN(S(=O)(=O)c2ccc(Oc3ccccc3)cc2)CCO1 (racemic) [compound 006, rac-3-[4-(4-phenoxyphenyl)sulfonylmorpholin-2-yl]benzothiophene-2-carboxamide] | > 6.00
6 | COC(=O)c1cccc(S(=O)(=O)N2CCOC(c3c(C(N)=O)sc4ccccc34)C2)c1 (racemic) [compound 007, rac-methyl 3-[2-(2-carbamoylbenzothiophen-3-yl)morpholin-4-yl]sulfonylbenzoate] | < 5.70
7 | Cc1noc(C)c1S(=O)(=O)N1CCOC(c2c(C(N)=O)sc3ccccc23)C1 (racemic) [compound 008, rac-3-[4-(3,5-dimethylisoxazol-4-yl)sulfonylmorpholin-2-yl]benzothiophene-2-carboxamide] | < 5.70
8 | NC(=O)c1sc2ccccc2c1C1CN(S(=O)(=O)c2cccc(Br)c2)CCO1 (racemic) [compound 009, rac-3-[4-(3-bromophenyl)sulfonylmorpholin-2-yl]benzothiophene-2-carboxamide] | < 5.70
9 | COc1ccc(S(=O)(=O)N2CCOC(c3c(C(N)=O)sc4ccccc34)C2)cc1 (racemic) [compound 010, rac-3-[4-(4-methoxyphenyl)sulfonylmorpholin-2-yl]benzothiophene-2-carboxamide] | 5.70 to 6.00
10 | Cc1cccc(S(=O)(=O)N2CCOC(c3c(C(N)=O)sc4ccccc34)C2)c1 (racemic) [compound 012, rac-3-[4-(m-tolylsulfonyl)morpholin-2-yl]benzothiophene-2-carboxamide] | 5.70 to 6.00
11 | NC(=O)c1sc2ccccc2c1C1CN(S(=O)(=O)c2ccc(N3CCCC3=O)cc2)CCO1 (racemic) [compound 015, rac-3-[4-[4-(2-oxopyrrolidin-1-yl)phenyl]sulfonylmorpholin-2-yl]benzothiophene-2-carboxamide] | < 5.70
12 | NC(=O)c1sc2ccccc2c1C1CN(S(=O)(=O)C2CCCCC2)CCO1 (racemic) [compound 016, rac-3-[4-cyclohexylsulfonylmorpholin-2-yl]benzothiophene-2-carboxamide] | < 5.70
13 | NC(=O)c1sc2ccccc2c1C1CN(S(=O)(=O)c2ccc3c(c2)OCO3)CCO1 (racemic) [compound 017, rac-3-[4-(1,3-benzodioxol-5-ylsulfonyl)morpholin-2-yl]benzothiophene-2-carboxamide] | 5.70 to 6.00
14 | COc1ccc(Oc2ccc(S(=O)(=O)N3CCOC(c4c(C(N)=O)sc5ccccc45)C3)cc2)cc1 (racemic) [compound 019, rac-3-[4-[4-(4-methoxyphenoxy)phenyl]sulfonylmorpholin-2-yl]benzothiophene-2-carboxamide] | < 5.70
15 | NC(=O)c1sc2ccccc2c1C1CN(S(=O)(=O)c2cccc(F)c2)CCO1 (racemic) [compound 020, rac-3-[4-(3-fluorophenyl)sulfonylmorpholin-2-yl]benzothiophene-2-carboxamide] | 5.70 to 6.00
16 | NC(=O)c1sc2ccccc2c1C1CN(S(=O)(=O)c2ccc(F)c(F)c2)CCO1 (racemic) [compound 021, rac-3-[4-(3,4-difluorophenyl)sulfonylmorpholin-2-yl]benzothiophene-2-carboxamide] | < 5.70
17 | NC(=O)c1sc2ccccc2c1C1CN(S(=O)(=O)c2ccc(F)cc2)CCO1 (racemic) [compound 022, rac-3-[4-(4-fluorophenyl)sulfonylmorpholin-2-yl]benzothiophene-2-carboxamide] | < 5.70
18 | COc1ccc(S(=O)(=O)N2CCOC(c3c(C(N)=O)sc4ccccc34)C2)cc1C (racemic) [compound 023, rac-3-[4-(4-methoxy-3-methyl-phenyl)sulfonylmorpholin-2-yl]benzothiophene-2-carboxamide] | < 5.70
19 | NC(=O)c1sc2ccccc2c1C1CN(S(=O)(=O)c2ccc(Oc3ccncc3)cc2)CCO1 (racemic) [compound 024, rac-3-[4-[4-(4-pyridyloxy)phenyl]sulfonylmorpholin-2-yl]benzothiophene-2-carboxamide] | < 5.70
20 | Cc1cc(S(=O)(=O)N2CCOC(c3c(C(=O)N(C)C)sc4ccccc34)C2)ccc1F (racemic) [compound 025, rac-3-[4-(4-fluoro-3-methyl-phenyl)sulfonylmorpholin-2-yl]-N,N-dimethyl-benzothiophene-2-carboxamide] | < 5.70
21 | Cc1ccc(S(=O)(=O)N2CCOC(c3c(C(N)=O)sc4ccccc34)C2)cc1F (racemic) [compound 026, rac-3-[4-(3-fluoro-4-methyl-phenyl)sulfonylmorpholin-2-yl]benzothiophene-2-carboxamide] | > 6.00
22 | Cc1ccc(F)cc1S(=O)(=O)N1CCOC(c2c(C(N)=O)sc3ccccc23)C1 (racemic) [compound 027, rac-3-[4-(5-fluoro-2-methyl-phenyl)sulfonylmorpholin-2-yl]benzothiophene-2-carboxamide] | < 5.70
23 | CNC(=O)c1sc2ccccc2c1C1CN(S(=O)(=O)c2ccc(F)c(C)c2)CCO1 (racemic) [compound 028, rac-3-[4-(4-fluoro-3-methyl-phenyl)sulfonylmorpholin-2-yl]-N-methyl-benzothiophene-2-carboxamide] | < 5.70
24 | Cc1cc(S(=O)(=O)N2CCOC(c3c(C(=O)NCCO)sc4ccccc34)C2)ccc1F (racemic) [compound 029, rac-3-[4-(4-fluoro-3-methyl-phenyl)sulfonylmorpholin-2-yl]-N-(2-hydroxyethyl)benzothiophene-2-carboxamide] | < 5.70
25 | CCNC(=O)c1sc2ccccc2c1C1CN(S(=O)(=O)c2ccc(F)c(C)c2)CCO1 (racemic) [compound 030, rac-N-ethyl-3-[4-(4-fluoro-3-methyl-phenyl)sulfonylmorpholin-2-yl]benzothiophene-2-carboxamide] | < 5.70
26 | Cc1cc(S(=O)(=O)N2CCOC(c3c(C(=O)NC(C)C)sc4ccccc34)C2)ccc1F (racemic) [compound 031, rac-3-[4-(4-fluoro-3-methyl-phenyl)sulfonylmorpholin-2-yl]-N-isopropyl-benzothiophene-2-carboxamide] | < 5.70
27 | Cc1cc(C)c(S(=O)(=O)N2CCOC(c3c(C(N)=O)sc4ccccc34)C2)c(C)c1 (racemic) [compound 032, rac-3-[4-(2,4,6-trimethylphenyl)sulfonylmorpholin-2-yl]benzothiophene-2-carboxamide] | < 5.70
